Laboratory results published in patent US20250213703A1, “HUMAN INTERLEUKIN 2-POLYETHYLENE GLYCOL CONJUGATE AND USE THEREOF” (Novocodex Biopharmaceuticals Co., Ltd., priority 2021, published 2025).

Legend:
mouse liver cancer H22 = assay: Anti-tumor activity, H22 homograft tumor model; assay type: in vivo; conditions: Balb/c mice
Procedure: (§1) A cell suspension of 2×10^5/0.1 mL/mouse CT26.WT (purchased from […], product catalog number CRL-2638) and a cell suspension of 4×10^5/0.1 mL/mouse H22 (purchased from CCTCC, product catalog number GD00091) were subcutaneously inoculated into right backs of the mice. […] During the experiment, weights and tumor volumes of the animals were measured 3 times every week, and administration modes and experimental results were shown in Table 4.

YT cells = assay: STAT5 phosphorylation assay (YT cells); assay type: cell-based, human; conditions: [EC50 YT/EC50 CTLL-2 of sample]/[EC50 YT/EC50 CTLL-2 of reference] × 100%
Excerpt: In this method, two cell lines were adopted, wherein mouse CTLL-2 cells were a cell line containing IL-2Rαβγ, and human YT cells were a cell line containing IL-2Rβγ, and rhIL-2 activated the JAK-STAT signal pathway by binding with IL-2R on the cell surface. […] The lower the percentage change of EC50 ratio of YT cells/CTLL-2 cells was, the better the effect of promoting the immune function of the samples was, and on the contrary, the better the effect of inhibiting the immune function was.
The specific process was as follows: the mouse CTLL-2 cells (purchased from American Type Culture Collection) and the human YT cells were cultured in their own media (CTLL-2 cell medium: RPMI 1640+10% FBS+400 IU/mL rhIL-2, 2 mM L-glutamine and 1 mM sodium pyruvate; and YT cell medium: RPMI 1640+10% FBS+1 mm Non-Essential Amino Acids Solution (purchased from Gibco, product catalog number 11140050)) to a sufficient amount at condition of 37° C. and 5% carbon dioxide, and starved for 4 hours before detection, and then the cell density was adjusted to be 1×10^6 cells/mL for later use.

[1] = system: mouse colon cancer CT26.WT; assay: Anti-tumor activity, CT26.WT homograft tumor model; assay type: in vivo; conditions: Balb/c mice
Procedure: as §1

[2] = system: CD8^+ T cells and CD4^+ Treg cells; assay: Immune cell population in CT26.WT tumor tissue (flow cytometry); assay type: in vivo, mouse; conditions: for CD8^+ T cells/CD4^+ Treg / Percentage of CD4^+ Treg in leucocytes / Percentage of CD8^+ T cells in leucocytes: 5th day, 2.0 mg/kg IV single dosage; for proportions of CD4^+ Treg cells compared with Quanqi rhIL2 / proportions of CD8^+ T cells compared with Quanqi rhIL2 / proportions of CD8^+ T/CD4^+ Treg compared with Quanqi rhIL2: in words
Procedure: A cell suspension of 2×10^5/0.1 mL/mouse CT26.WT was subcutaneously inoculated into right backs of the mice. […] On the 5th day, tumor tissue samples of various groups were collected for flow cytometry detection of changes in cell populations of CD8^+ T cells and CD4^+ Treg cells.

[3] = mouse, in vivo, iv, 1 mg/kg
Procedure: The blood sample was placed at room temperature for 15 minutes and centrifuged at 6,800 g/min for 6 minutes to obtain serum. The plasma concentration in the serum was analyzed by the following method:
(1) Coating: 50 μL of 1 μg/mL working solution of Anti-IL-2 antibody (purchased from abcam, product catalog number: ab9618) was added into each well in a high-adsorption 96-well plate, and incubated at 2° C. to 8° C. overnight. (2) Washing: the liquid in the well was discarded, and the well was washed with 1 xPBST (0.05% Tween-20) for 3 times, according to 300 μL/well. (3) Sealing: a casein sealing solution (purchased from Thermo, product catalog number 37528) was added according to 200 μL/well, and allowed to stand at room temperature for 90 minutes. (4) Washing: the liquid in the well was discarded, and the well was washed with 1 xPBST for 3 times, according to 300 μL/well. […] (6) Washing: the liquid in the well was discarded, and the well was washed with 1×PBST for 3 times, according to 300 μL/well. (7) Primary antibody: 50 μL of 0.25 μg/mL working solution of IL-2 Monoclonal Antibody (BG5) and Biotin (purchased from Invitrogen, product catalog number M600B) was added into each well, and allowed to stand at room temperature for 60 minutes. (8) Washing: the liquid in the well was discarded, and the well was washed with 1×PBST for 3 times, according to 300 μL/well. (9) Secondary antibody: Pierce™ High Sensitivity Streptavidin-HRP (purchased from Thermo, product catalog number 21130) was diluted for 4,000 times with a casein sealing solution, and 50 μL was added into each well, and allowed to stand at room temperature for 60 minutes. (10) Washing: the liquid in the well was discarded, and the well was washed with 1×PBST for 4 times, according to 300 μL/well. […] (12) Stopping and reading: 2 M sulfuric acid stop solution was added 25 minutes later, and light absorption values at 450 nm and 650 nm were read on a microplate reader (purchased from Perkin Elmer, model EnSight).

[4] = biological target: IL-2Rαβγ on mouse CTLL-2 cells (mouse (CTLL-2 cells)) (UniProt P01590); assay: cell-based or functional assay
Chain of IL-2Rαβγ on mouse CTLL-2 cells (mouse (CTLL-2 cells)) (P01590 22-268, chain 1 of 3): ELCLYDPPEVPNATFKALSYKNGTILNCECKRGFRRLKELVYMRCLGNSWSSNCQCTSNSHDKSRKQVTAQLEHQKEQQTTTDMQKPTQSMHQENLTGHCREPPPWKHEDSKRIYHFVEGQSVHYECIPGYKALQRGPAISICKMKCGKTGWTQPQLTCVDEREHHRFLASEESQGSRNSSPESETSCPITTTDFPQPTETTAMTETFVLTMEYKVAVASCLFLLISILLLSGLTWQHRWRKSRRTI
Chain of IL-2Rαβγ on mouse CTLL-2 cells (mouse (CTLL-2 cells)) (P16297 27-539, chain 2 of 3, further chain): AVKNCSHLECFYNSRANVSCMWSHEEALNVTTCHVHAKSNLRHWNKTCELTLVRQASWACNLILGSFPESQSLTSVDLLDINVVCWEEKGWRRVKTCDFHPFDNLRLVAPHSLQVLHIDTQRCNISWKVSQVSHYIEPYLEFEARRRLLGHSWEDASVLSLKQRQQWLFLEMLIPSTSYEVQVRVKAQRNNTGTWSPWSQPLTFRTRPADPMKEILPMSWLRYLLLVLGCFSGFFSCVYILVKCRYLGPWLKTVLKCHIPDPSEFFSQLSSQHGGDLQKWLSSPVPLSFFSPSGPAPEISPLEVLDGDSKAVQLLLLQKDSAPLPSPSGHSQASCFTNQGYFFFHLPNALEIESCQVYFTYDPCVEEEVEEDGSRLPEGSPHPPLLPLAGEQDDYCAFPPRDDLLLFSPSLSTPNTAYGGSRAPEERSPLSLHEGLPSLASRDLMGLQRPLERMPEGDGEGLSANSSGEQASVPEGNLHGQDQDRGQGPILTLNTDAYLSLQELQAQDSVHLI
Chain of IL-2Rαβγ on mouse CTLL-2 cells (mouse (CTLL-2 cells)) (P34902 23-369, chain 3 of 3, further chain): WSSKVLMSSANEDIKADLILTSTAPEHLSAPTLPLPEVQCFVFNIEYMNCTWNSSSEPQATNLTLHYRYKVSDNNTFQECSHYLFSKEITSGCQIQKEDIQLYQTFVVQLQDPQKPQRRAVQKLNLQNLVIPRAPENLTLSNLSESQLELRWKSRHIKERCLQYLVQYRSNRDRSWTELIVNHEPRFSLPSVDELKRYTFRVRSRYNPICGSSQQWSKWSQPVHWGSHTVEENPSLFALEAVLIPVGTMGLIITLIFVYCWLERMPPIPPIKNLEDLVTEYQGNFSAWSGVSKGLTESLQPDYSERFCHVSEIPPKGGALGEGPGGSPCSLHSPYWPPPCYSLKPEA

IL-2Rβγ = biological target: T1, IL-2Rβγ (Homo sapiens, UniProt P14784+P31785); conditions: moderate-affinity complex IL-2Rβγ; cited from earlier work
T1 sequence (P14784 27-551): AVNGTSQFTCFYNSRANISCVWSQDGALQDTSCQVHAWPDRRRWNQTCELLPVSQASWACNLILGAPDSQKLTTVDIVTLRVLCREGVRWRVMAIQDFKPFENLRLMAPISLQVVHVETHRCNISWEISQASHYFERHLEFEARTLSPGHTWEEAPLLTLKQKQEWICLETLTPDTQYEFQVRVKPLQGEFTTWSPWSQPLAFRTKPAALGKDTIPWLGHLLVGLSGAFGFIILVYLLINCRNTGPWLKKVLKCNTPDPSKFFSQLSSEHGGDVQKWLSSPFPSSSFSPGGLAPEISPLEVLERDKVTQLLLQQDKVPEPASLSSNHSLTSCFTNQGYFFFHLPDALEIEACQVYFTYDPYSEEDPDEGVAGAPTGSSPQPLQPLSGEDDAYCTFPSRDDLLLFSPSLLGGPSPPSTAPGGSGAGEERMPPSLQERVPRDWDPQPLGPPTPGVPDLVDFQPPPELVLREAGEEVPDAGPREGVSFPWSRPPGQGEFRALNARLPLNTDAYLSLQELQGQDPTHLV
T1 sequence (P31785 23-369): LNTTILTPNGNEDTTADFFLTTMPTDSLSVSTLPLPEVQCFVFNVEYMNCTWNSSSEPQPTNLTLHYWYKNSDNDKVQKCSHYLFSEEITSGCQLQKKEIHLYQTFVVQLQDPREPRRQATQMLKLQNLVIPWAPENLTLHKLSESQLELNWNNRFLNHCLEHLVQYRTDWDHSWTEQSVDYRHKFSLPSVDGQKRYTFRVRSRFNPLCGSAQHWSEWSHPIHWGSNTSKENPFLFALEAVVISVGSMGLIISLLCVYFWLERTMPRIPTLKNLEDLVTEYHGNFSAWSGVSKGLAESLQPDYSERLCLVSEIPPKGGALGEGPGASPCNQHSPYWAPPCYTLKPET

IL-2Rαβγ = biological target: T2, IL-2Rαβγ (Homo sapiens, UniProt P01589+P14784+P31785); conditions: high-affinity complex IL-2Rαβγ; cited from earlier work
T2 sequence (P01589 22-272): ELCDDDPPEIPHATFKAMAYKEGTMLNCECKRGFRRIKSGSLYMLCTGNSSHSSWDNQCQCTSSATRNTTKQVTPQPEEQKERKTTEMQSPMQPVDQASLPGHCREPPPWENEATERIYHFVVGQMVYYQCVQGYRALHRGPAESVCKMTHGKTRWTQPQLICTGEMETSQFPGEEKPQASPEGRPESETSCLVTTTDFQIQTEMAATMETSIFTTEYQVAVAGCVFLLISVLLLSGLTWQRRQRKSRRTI
T2 sequence (P14784 27-551): T1 sequence (P14784 27-551)
T2 sequence (P31785 23-369): T1 sequence (P31785 23-369)

IL-2Rα = biological target: T3, IL-2Rα (Homo sapiens, UniProt P01589); conditions: low-affinity receptor IL-2Rα subunit; cited from earlier work
T3 sequence (P01589 22-272): T2 sequence (P01589 22-272)

[5] = high dosage 5.0 mg/kg IV Q5D × 3
[6] = low dosage 0.7 mg/kg IV Q5D × 3

Substance: 30 KD PEG-rhIL2-T41: rhIL-2 with unnatural amino acid NOPK at T41 site, coupled via oxime bond with 30 KD aminoxy PEG
- Average value ± standard error of tumor weight (mouse liver cancer H22; [5]): 0.38 g
- TGITW (mouse liver cancer H22; [5]): 80%
- Average value ± standard error of tumor weight (mouse liver cancer H22; [6]): 0.69 g
- TGITW (mouse liver cancer H22; [6]): 63%
- Percentage change of EC50 ratio of YT/CTLL-2 cells of 30 KD PEG-rhIL2 sample (YT cells): 43%
- Average value ± standard error of tumor weight [1, 5]: 0.32 g
- TGITW [1, 5]: 88%
- Average value ± standard error of tumor weight [1, 6]: 0.64 g
- TGITW [1, 6]: 77%
- CD8^+ T cells/CD4^+ Treg [2]: 27.7
- Percentage of CD4^+ Treg in leucocytes [2]: 1.3%
- Percentage of CD8^+ T cells in leucocytes [2]: 36.0%
- proportions of CD4^+ Treg cells compared with Quanqi rhIL2 [2]: significantly decreased
- proportions of CD8^+ T cells compared with Quanqi rhIL2 [2]: significantly increased
- proportions of CD8^+ T/CD4^+ Treg compared with Quanqi rhIL2 [2]: significantly increased

Substance: 30 KD PEG-rhIL2-E61: rhIL-2 with unnatural amino acid NOPK at E61 site, coupled via oxime bond with 30 KD aminoxy PEG
- Percentage change of EC50 ratio of YT/CTLL-2 cells of 30 KD PEG-rhIL2 sample (YT cells): 89%

Substance: 30 KD PEG-rhIL2-Y45: rhIL-2 with unnatural amino acid NOPK at Y45 site, coupled via oxime bond with 30 KD aminoxy PEG
- AUC0-t [3]: 168.141 µg·h/mL
- MRT0-t [3]: 9.42 h
- Vz [3]: 0.126 L/kg
- Average value ± standard error of tumor weight (mouse liver cancer H22; [5]): 0.4 g
- TGITW (mouse liver cancer H22; [5]): 79%
- Average value ± standard error of tumor weight (mouse liver cancer H22; [6]): 0.82 g
- TGITW (mouse liver cancer H22; [6]): 57%
- Percentage change of EC50 ratio of YT/CTLL-2 cells of 30 KD PEG-rhIL2 sample (YT cells): 6%
- Average value ± standard error of tumor weight [1, 5]: 0.22 g
- TGITW [1, 5]: 92%
- Average value ± standard error of tumor weight [1, 6]: 0.93 g
- TGITW [1, 6]: 66%
- CD8^+ T cells/CD4^+ Treg [2]: 23.2
- Percentage of CD4^+ Treg in leucocytes [2]: 1.3%
- Percentage of CD8^+ T cells in leucocytes [2]: 30.1%
- proportions of CD4^+ Treg cells compared with Quanqi rhIL2 [2]: significantly decreased
- proportions of CD8^+ T cells compared with Quanqi rhIL2 [2]: significantly increased
- proportions of CD8^+ T/CD4^+ Treg compared with Quanqi rhIL2 [2]: significantly increased

Substance: reference rhIL-2 (purchased from Beijing Solarbio Science & Technology Co., Ltd., catalog number: P00020) (from UniProt P60568 21-153) (ligand)
- STAT5 phosphorylation assay (CTLL-2 cells) EC50 [4]: 0.12 ng/mL

Substance: IL-2: mature human IL-2 with 133 amino acids, background description
- Kd (IL-2Rβγ): 1 nM
- Kd (IL-2Rαβγ): 0.01 nM
- Kd (IL-2Rα): 10 nM

Substance: 30 KD PEG-rhIL2-K35: rhIL-2 with unnatural amino acid NOPK at K35 site, coupled via oxime bond with 30 KD aminoxy PEG
- Percentage change of EC50 ratio of YT/CTLL-2 cells of 30 KD PEG-rhIL2 sample (YT cells): 53%

Substance: 30 KD PEG-rhIL2-P65: rhIL-2 with unnatural amino acid NOPK at P65 site, coupled via oxime bond with 30 KD aminoxy PEG
- Percentage change of EC50 ratio of YT/CTLL-2 cells of 30 KD PEG-rhIL2 sample (YT cells): 91%
